From patent publication US7544835B2, “Carboxylic acid derivative and salt thereof” (Eisai R&D Management Co., Ltd., priority 2001, dated 2009)
Read-outs that look alike come from different tables or passages of the source.

Tested on: male db/db mice
Assay: Blood glucose, triglyceride and non-esterified fatty acid reduction in db/db mice
Type: in vivo
Details: Mus musculus, 216 h, oral once a day, day 9 after administration
Procedure: A chemical suspended in 0.5% methyl cellulose was orally administered via a sonde into male db/db mice (Nippon Charles River, Yokohama, JP) once a day (0.3 to 30 mg/kg/day). Before treatment and after 4 and 9 days treatment, blood was collected through a tail vein after the mice were fasted for 1 hour, respectively. On Day 10, an oral glucose loading test was conducted; in this test, the mice were fasted overnight from the previous day, and in the next morning, 2 g/kg glucose was given to the mice. Plasma glucose, triglycerides (TG), non-esterified fatty acid (NEFA) were measured by using commercial kits, that is, Glucose C-II Test Wako (trade name) (Wako Pure Chemical Industries, Ltd., Tokyo), Determiner L TG II (trade name) (Kyowa Medex, Tokyo) and NEFA C-Test Wako (Wako Pure Chemical Industries, Ltd., Tokyo), respectively.
The determined blood glucose reduction, blood triglyceride reduction and blood non-esterified fatty acid reduction at day 9 after administration are shown in Table 1.

[1] = read-out: Blood free fatty acid reduction (%)
[2] = read-out: Blood sugar reduction (%)
[3] = read-out: Blood triglyceride reduction (%)

Compound: CC(C)O[C@@H](Cc1cccc(CNC(=O)OCc2ccc(OC(F)(F)F)cc2)c1)C(=O)O [Ex 335, 2 (S)-Isopropoxy-3-{3-[(4-trifluoromethoxybenzyloxycarbonylamino)methyl]phenyl}-propanoic acid]
- inhibition in vivo at 3 mg/kg [1]: 40%
- inhibition in vivo at 3 mg/kg [2]: 57.2%
- inhibition in vivo at 3 mg/kg [3]: 81.4%

Compound: CC(C)O[C@@H](Cc1cccc(OC[C@@H](F)COc2ccc(Cl)cc2Cl)c1)C(=O)O [Example 320, 3-{3-[3-(2,4-Dichlorophenoxy)-2 (R)-fluoropropoxy]phenyl}-2(S)-isopropoxypropanoic acid]
- inhibition in vivo at 3 mg/kg [1]: 35.4%
- inhibition in vivo at 3 mg/kg [2]: 56.3%
- inhibition in vivo at 3 mg/kg [3]: 80.3%

Compound: CC(C)OC(Cc1cccc(C#C[C@]2(O)CC[C@@H](C(C)(C)C)CC2)c1)C(=O)O (stereo partly drawn) [Ex 113, trans-3-(3-2-[4-t-Butyl-1-hydroxycyclohexyl]-1-ethynylphenyl)-2-isopropoxypropanoic acid]
- inhibition in vivo at 6 mg/kg [1]: 39.5%
- inhibition in vivo at 6 mg/kg [2]: 70%
- inhibition in vivo at 6 mg/kg [3]: 81.8%

Compound: C/C(=N\OCc1ccc(C(F)(F)F)cc1)c1cccc(CC(OC(C)C)C(=O)O)c1 (stereo not drawn) [Ex 132, 2-Isopropoxy-3-[3-([4-(trifluoromethyl)benzyl]-oxyethaneimidoyl)phenyl]propanoic acid]
- inhibition in vivo at 6 mg/kg [1]: 72.5%
- inhibition in vivo at 6 mg/kg [2]: 50.4%
- inhibition in vivo at 6 mg/kg [3]: 75.5%

Compound: CC(C)O[C@@H](Cc1cccc(CNC(=O)OCc2cccc(OC(F)(F)F)c2)c1)C(=O)O [Ex 344, 3-(3-{[3-Trifluoromethoxybenzyloxycarbonylamino]methyl}phenyl)-2(S)-isopropoxypropanoic acid]
- inhibition in vivo at 3 mg/kg [1]: 58.1%
- inhibition in vivo at 3 mg/kg [2]: 45.8%
- inhibition in vivo at 3 mg/kg [3]: 61.8%

Compound: CC(C)O[C@@H](Cc1cccc(OC[C@H](O)COc2ccc(Cl)cc2)c1)C(=O)O [Example 282, 3-(3-{2(R)-Hydroxy-3-[4-chlorophenoxy]propoxy}phenyl)-2(S)-isopropoxypropanoic acid]
- inhibition in vivo at 3 mg/kg [1]: 18.4%
- inhibition in vivo at 3 mg/kg [2]: 17.9%
- inhibition in vivo at 3 mg/kg [3]: 59.7%

Compound: CC(C)OC(Cc1cccc(OCC#Cc2ccc(Cl)cc2Cl)c1)C(=O)O (stereo not drawn) [Ex 100, 2-Isopropoxy-3-(3-[3-(2,4-dichlorophenyl)-2-propynyl]oxyphenyl)propanoic acid]
- inhibition in vivo at 6 mg/kg [1]: 60.7%
- inhibition in vivo at 6 mg/kg [2]: 65.1%
- inhibition in vivo at 6 mg/kg [3]: 79.3%

Compound: CC(C)O[C@@H](Cc1cccc(OC[C@H](F)COc2ccc(Cl)cc2C#N)c1)C(=O)O [Example 329, 3-{3-[3-(4-Chloro-2-cyanophenoxy)-2(S)-fluoropropoxy]phenyl}-2(S)-isopropoxypropanoic acid]
- inhibition in vivo at 3 mg/kg [1]: 47.5%
- inhibition in vivo at 3 mg/kg [2]: 37.7%
- inhibition in vivo at 3 mg/kg [3]: 36.8%
